Results taken from patent publication US9353082B2, “Pharmaceutical compounds” (BIAL—PORTELA & CA, S.A., priority 2008, dated 2016).

Molecular target: T1, FAAH (Rattus norvegicus, UniProt P97612)
T1 construct: Frozen brains (without cerebellum) from Wistar rats were used; from tissue; host or cells: Wistar rat brain (without cerebellum), washed membrane pellets
T1 sequence (P97612 1-579): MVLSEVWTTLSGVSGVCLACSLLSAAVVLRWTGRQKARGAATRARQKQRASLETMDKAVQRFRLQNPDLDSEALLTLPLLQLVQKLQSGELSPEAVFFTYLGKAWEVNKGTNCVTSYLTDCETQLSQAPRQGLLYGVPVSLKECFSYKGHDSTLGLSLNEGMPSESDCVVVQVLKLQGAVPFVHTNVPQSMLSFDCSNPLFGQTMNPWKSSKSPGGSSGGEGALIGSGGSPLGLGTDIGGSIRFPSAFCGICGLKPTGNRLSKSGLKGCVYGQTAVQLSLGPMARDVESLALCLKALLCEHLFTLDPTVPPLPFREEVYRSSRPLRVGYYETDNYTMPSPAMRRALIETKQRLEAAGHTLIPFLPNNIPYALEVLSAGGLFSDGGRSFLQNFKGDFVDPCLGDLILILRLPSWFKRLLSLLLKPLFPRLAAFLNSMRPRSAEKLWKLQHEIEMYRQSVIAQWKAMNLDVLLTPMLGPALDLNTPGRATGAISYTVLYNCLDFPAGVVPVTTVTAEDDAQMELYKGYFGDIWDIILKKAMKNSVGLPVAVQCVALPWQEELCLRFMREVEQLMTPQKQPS
Assay: In vitro FAAH activity in rat brain membranes, 3H-AEA substrate, % of control
Assay type: biochemical, Wistar rats
Settings: 100 nM test compound, low value = strong inhibitor
Protocol: 3. Biological Efficacy of Compounds of the Invention The in vitro test was performed according to the protocol described below. The controls for both in vitro and in vivo were the reaction mix minus the test compounds. Therefore, a low value in Table 1 below for the test compounds indicates a strong inhibitor.
The in vitro pharmaceutical FAAH activity was determined according to the following method:
Frozen brains (without cerebellum) from Wistar rats were used, and each brain was homogenized in 15 ml 1 mM MgCL2, […] HEPES pH 7.0 with Potter Elvejhem (8 strokes at 500 rpm). Homogenates were centrifuged for 20 min at 36000 g at 4° C. (Beckman, 70Ti rotor). Pellets were resuspended in 15 ml of the same buffer and centrifuged under the same conditions. Pellets were resuspended in 15 ml of the same buffer and incubated for 15 min at 37° C. after which they were centrifuged for 20 min at 36000 g at 4° C. Each pellet was then resuspended in 15 ml 3 mM MgCl2, 1 mM EDTA, 50 mM Tris pH 7.4 and protein determined with BioRad Protein Assay (BioRad) using a standard curve of BSA (50-250 μg/ml). The membrane suspensions were aliquoted and stored at −80° C.
The FAAH activity was determined using AEA (labelled with 3H in the ethanolamine part of the molecule) as substrate and measuring the 3H-ethanolamine formed. Reaction mix (total volume of 200 up contained: 2 μM AEA (2 μM AEA+5 nM 3H-AEA), 0.1% fatty acid free BSA, 5 μg protein, in 1 mM EDTA, 10 mM Tris pH 7.6 and 10 μM or 0.1 μM compounds. Stock solutions of the compounds to test (10 mM) were prepared in 100% DMSO and the DMSO concentration in the assay was 0.1%. After a 15 min preincubation period at 37° C., reaction was started by the addition of the substrate solution ([…]). Reaction was carried out for 10 min before termination by the addition of 400 μl activated charcoal suspension (8 g charcoal in 32 ml 0.5 M HCl in continuous agitation). After a 30 min incubation period at room temperature with agitation, charcoal was sedimented by centrifugation in microfuge (10 min at 13000 rpm). 200 μl of the supernatant were added to 800 μl Optiphase Supermix scintillation cocktail previously distributed in 24-well plates. Counts per minute (cpm) were determined in Microbeta TriLux scintillation counter (10 min counting or until s=2).
In each assay blanks (no protein, usually below 200 cpm) and controls (no compound) were present. The results are reported in Table 1 as % of control after blank subtraction.

Compound	In Vitro FAAH activity, 100 nM
O=C(N1CCOCC1)n1ccc2cc(F)ccc21 [Compound 46, (5-fluoro-1H-indol-1-yl)(morpholino)methanone]	104.3 % of control
COc1ccc2c(ccn2C(=O)N2CCOCC2)c1 [Compound 47, (5-methoxy-1H-indol-1-yl)(morpholino)methanone]	97.2 % of control
O=C(N1CCOCC1)n1ccc2cc(O)ccc21 [Compound 52, (5-hydroxy-1H-indol-1-yl)(morpholino)methanone]	102.7 % of control
CN(C(=O)n1cnc(-c2ccc(O)cc2)c1)c1ccc(F)cc1 [Compound 54, N-(4-fluorophenyl)-4-(4-hydroxyphenyl)-N-methyl-1H-imidazole-1-carboxamide]	91 % of control
O=C(Nc1ccc(Oc2ccccc2)cc1)n1nnc2ccccc21 [Compound 56, N-(4-phenoxyphenyl)-1H-benzo[d][1,2,3]triazole-1-carboxamide]	90.7 % of control
COc1ccc(NC(=O)n2nnc3ccccc32)cc1 [Compound 57, N-(4-methoxyphenyl)-1H-benzo[d][1,2,3]triazole-1-carboxamide]	96.9 % of control
O=C(Nc1ccc(F)cc1F)n1nnc2ccccc21 [Compound 59, N-(2,4-difluorophenyl)-1H-benzo[d][1,2,3]triazole-1-carboxamide]	100.4 % of control
O=C(Nc1ccccc1)n1nnc2ccccc21 [Compound 60, N-phenyl-1H-benzo[d][1,2,3]triazole-1-carboxamide]	93.8 % of control
O=C(Nc1ccc(Cl)cc1)n1nnc2ccccc21 [Compound 62, N-(4-chlorophenyl)-1H-benzo[d][1,2,3]triazole-1-carboxamide]	93.7 % of control
COc1ccc(-c2ncn(C(=O)N(C)c3ccccc3)n2)cc1 [Compound 64, 3-(4-methoxyphenyl)-N-methyl-N-phenyl-1H-1,2,4-triazole-1-carboxamide]	67.9 % of control
COc1ccc(-c2ncn(C(=O)N3CCOCC3)n2)cc1 [Compound 65, (3-(4-methoxyphenyl)-1H-1,2,4-triazol-1-yl)(morpholino)methanone]	86.5 % of control
COc1ccc(-c2ncn(C(=O)N(C)c3ccc(F)cc3)n2)cc1 [Compound 66, N-(4-fluorophenyl)-3-(4-methoxyphenyl)-N-methyl-1H-1,2,4-triazole-1-carboxamide]	80.9 % of control
CN(C(=O)n1cnc(-c2ccc(Cl)cc2)n1)c1ccccc1 [Compound 67, 3-(4-chlorophenyl)-N-methyl-N-phenyl-1H-1,2,4-triazole-1-carboxamide]	61 % of control
O=C(N1CCOCC1)n1cnc(-c2ccc(Cl)cc2)n1 [Compound 68, (3-(4-chlorophenyl)-1H-1,2,4-triazol-1-yl)(morpholino)methanone]	73.5 % of control
CN(C(=O)n1cnc(-c2ccc(Cl)cc2)n1)c1ccc(F)cc1 [Compound 69, 3-(4-chlorophenyl)-N-(4-fluorophenyl)-N-methyl-1H-1,2,4-triazole-1-carboxamide]	80.8 % of control
O=C(N1CCOCC1)n1nc(Cl)c2ccccc21 [Compound 72, (3-chloro-1H-indazol-1-yl)(morpholino)methanone]	87.6 % of control
O=C(N1CCOCC1)n1cnc(-c2ccccc2)n1 [Compound 73, morpholino(3-phenyl-1H-1,2,4-triazol-1-yl)methanone]	85.8 % of control

Compound	In Vitro FAAH activity, 100 nM
CN(C(=O)n1cnc(-c2ccccc2)n1)c1ccc(F)cc1F [Compound 74, N-(2,4-difluorophenyl)-N-methyl-3-phenyl-1H-1,2,4-triazole-1-carboxamide]	73.2 % of control
CN(C(=O)n1nnc2ccccc21)c1ccc(N2CCOCC2)cc1 [Compound 76, N-methyl-N-(4-morpholinophenyl)-1H-benzo[d][1,2,3]triazole-1-carboxamide]	97.1 % of control
COc1cc(OC)cc(N(C)C(=O)n2nnc3ccccc32)c1 [Compound 77, N-(3,5-dimethoxyphenyl)-N-methyl-1H-benzo[d][1,2,3]triazole-1-carboxamide]	76.3 % of control
O=C(N1CCOCC1)n1cnc(-c2ccc(F)cc2F)n1 [Compound 78, (3-(2,4-difluorophenyl)-1H-1,2,4-triazol-1-yl)(morpholino)methanone]	81.9 % of control
CN(C(=O)n1cnc(-c2ccc(F)cc2F)n1)c1ccc(F)cc1F [Compound 80, N,3-bis(2,4-difluorophenyl)-N-methyl-1H-1,2,4-triazole-1-carboxamide]	89.5 % of control
CN(C)c1ccc(N(C)C(=O)n2nnc3ccccc32)cc1 [Compound 81, N-(4-(dimethylamino)phenyl)-N-methyl-1H-benzo[d][1,2,3]triazole-1-carboxamide]	49.2 % of control
Cl.O=C(N1CCC(N2CCCCC2)CC1)n1nnc2ccccc21 [Compound 82, 1,4′-bipiperidin-1′-yl(1H-benzo[d][1,2,3]triazol-1-yl)methanone hydrochloride]	69.3 % of control
CN1CCN(C(=O)n2nnc3ccccc32)CC1.Cl [Compound 83, (1H-benzo[d][1,2,3]triazol-1-yl)(4-methylpiperazin-1-yl)methanone hydrochloride]	2.5 % of control
CN(C(=O)n1nnc2ccccc21)c1ccccn1 [Compound 84, N-methyl-N-(pyridin-2-yl)-1H-benzo[d][1,2,3]triazole-1-carboxamide]	62.5 % of control
CCCCCCCCCCCCNC(=O)n1nnc2ccccc21 [Compound 86, N-dodecyl-1H-benzo[d][1,2,3]triazole-1-carboxamide]	0 % of control
O=C(Nc1ccc(-c2ccccc2)cc1)n1nnc2ccccc21 [Compound 88, N-(biphenyl-4-yl)-1H-benzo[d][1,2,3]triazole-1-carboxamide]	105.4 % of control
O=C(N1CCOCC1)n1cc(-c2ccccc2)nn1 [Compound 89, morpholino(4-phenyl-1H-1,2,3-triazol-1-yl)methanone]	4.5 % of control
Cl.O=C(N1CCC(N2CCOCC2)CC1)n1nnc2ccccc21 [Compound 90, (1H-benzo[d][1,2,3]triazol-1-yl)(4-morpholinopiperidin-1-yl)methanone hydrochloride]	38.6 % of control
O=C(N1CCN(c2ccc(OCc3ccccc3)cc2)CC1)n1nnc2ccccc21 [Compound 91, (1H-benzo[d][1,2,3]triazol-1-yl)(4-(4-(benzyloxy)phenyl)piperazin-1-yl)methanone]	0 % of control
Cl.O=C(N1CCC(N2CCCC2)CC1)n1nnc2ccccc21 [Compound 92, (1H-benzo[d][1,2,3]triazol-1-yl)(4-(pyrrolidin-1-yl)piperidin-1-yl)methanone hydrochloride]	96 % of control
Cl.O=C(N1CCN(Cc2ccccc2)CC1)n1nnc2ccccc21 [Compound 93, (1H-benzo[d][1,2,3]triazol-1-yl)(4-benzylpiperazin-1-yl)methanone hydrochloride]	0 % of control
